Experimental data published in US4039669A, “Composition for topical application and use thereof” (Sterling Drug Inc., priority 1975, dated 1977).

Tests used:
steroid 5α-reductase [1] = details: cited from earlier work; for Anti-androgenic activity by inhibitory effects on steroid 5α-reductase activity: laboratory animals
[2] = in vivo; cited from earlier work
[3] = system: testosterone-stimulated flank organs; assay: Effect on testosterone-stimulated flank organs in the castrated hamster (topical); type: in vivo; details: for Flank Organ Cholest., Mean ± S.E. / Flank Organ Diameter, Mean ± S.E. / Flank Organ Wet Wgt, Mean ± S.E. / Flank Organ Develop. (Med. Score): topical; for Flank Organ Cholest., Mean ± S.E. / Flank Organ Diameter, Mean ± S.E. / Flank Organ Wet Wgt, Mean ± S.E.: 14 times over 2 weeks; for Inhibition of testosterone-stimulated increase in the cholesterol contact of the flank organs (in words) / Reduction of testosterone-stimulated increase in flank organ diameter (in words) / Suppression of flank organ development, degree of pigmentation (in words) / Wet weight of the flank organs (in words): topical with 1 μg TP; for Flank Organ Develop. (Med. Score): degree of pigmentation, score 0 to 4, 2 weeks
Description: (§1) The effect of 17α-(n-propyl)androst-4-en-17β -ol-3-one and 17α-(n-butyl)androst-4-en-17β -ol-3-one on testosterone-stimulated flank organs and on endocrine organs in the castrated hamster was determined as follows:
(§2) Castrated hamsters were treated on both flank organs topically with testosterone propionate (TP) equivalent to 1 microgram of testosterone with or without the test agents dissolved in 5 microliters of absolute ethanol 14 times over a 2 weeks period. The hamsters were 4-5 weeks of age (55 to 75 grams body weight) and were caged individually. After the end of the two-weeks period, the development (degree of pigmentation) and diameter of the flank organs were assessed and measured, and the flank organs were punched out with an 8 mm cork borer for determination of wet weight and cholesterol content. Endocrine organ weights (adrenal gland, seminal vesicle and thymus gland) were also determined.
In the first table TP refers to testosterone propionate, Compd. I refers to 17α-(n-propyl)androst-4-en-17β -ol-3-one, Compd. II refers to 17α-(n-butyl)androst-4-en-17β -ol-3-one, and n refers to the number of animals in each group.

[4] = system: endocrine organs (adrenal gland, seminal vesicle and thymus gland); assay: Endocrine organ weights in the castrated hamster after topical treatment; type: in vivo; details: for Endocr. Organ Wgts, Mean ± S.E.: Adrenal Gland / Endocr. Organ Wgts, Mean ± S.E.: Seminal Vesicle / Endocr. Organ Wgts, Mean ± S.E.: Thymus Gland: topical, 2 weeks; for Weights of the endocrine organs (in words): topical application, castrated hamsters
Description: as §1, §2

[5] = system: flank organ sebaceous glands; assay: Daily topical application to normal, sexually mature male hamsters; type: in vivo, hamster; details: 200 μg daily, 6 weeks
steroid 5α-reductase [6] = assay: Inhibition of conversion of testosterone to dihydrotestosterone, minced hamster flank organ, tritiated testosterone; type: biochemical
Description: The effectiveness of 17α-(n-propyl)androst-4-en-17β -ol-3-one in inhibiting the conversion of testosterone dihydrotestosterone by the enzyme steroid 5α-reductase was measured using minced hamster flank organ as a source of the enzyme and tritiated testosterone as a substrate. At concentrations of one-hundredth molar and one-thousandth molar, 17α-(n-propyl)androst-4-en-17β -ol-3-one was 100% and 53% inhibitory, respectively.

[7] = Standard test procedures for androgenic, estrogenic or anabolic properties; type: in vivo
[8] = Progestational activity (Clauberg assay); type: in vivo
Description: When 17α-(n-propyl)androst-4-en-17β -ol-3-one was administered intramuscularly, its progestational activity was about one-fortieth that of progesterone.

[9] = Serum testosterone levels after topical application to sexually mature hamsters; type: in vivo, hamster; details: 200 μg per flank organ topically, 3 weeks
Description: When 17α-(n-propyl)androst-4-en-17β -ol-3-one was topically applied to sexually mature hamsters at 200 μg per flank organ for a period of 3 weeks, serum testosterone levels were unchanged compared with untreated controls.

[10] = Subcutaneous and oral toxicity (LD50) in the mouse; details: in vivo
Source text: (§3) 17α-(n-Propyl)androst-4-en-17β -ol-3-one is conveniently prepared by a three-step synthesis from 3β -acetoxyandrost-5-en-17-one in an over-all yield of 43%. The first step is a Grignard reaction with allylmagnesium bromide to give 17α-allylandrost-5-ene-3β,17β-diol in 81% yield. The second step is a hydrogenation over 10% palladium-on-carbon catalyst to afford 17α-propylandrost-5-ene-3β, 17β-diol in 88% yield. The third step is an Oppenauer oxidation with aluminum isopropoxide to give the desired 17α-(n-propyl)androst-4-en-17β -ol-3-one in 60.5% yields.

[11] = Subcutaneous and oral toxicity (LD50) in the rat; details: in vivo
Source text: as §3

acne or sebum secretion = details: tried topically; cited from earlier work
[12] = 200 μg topically with 1 μg testosterone propionate, castrated hamsters
[13] = castrated hamsters, 1 μg TP + 100 μg test compound
[14] = castrated hamsters, 1 μg TP + 200 μg test compound
[15] = Group III: 1 μg TP + 100 μg test compound
[16] = Groups IV, V: 1 μg TP + 200 μg test compound
[17] = oral, read-out: Oral toxicity (LD50)
[18] = sc, subcutaneous, read-out: Subcutaneous toxicity (LD50)
[19] = castrated hamsters, 1 μg TP alone

C[C@]12CC[C@H]3[C@@H](CCC4=CC(=O)CC[C@@]43C)[C@@H]1CC[C@@H]2C(=O)O [3-oxoandrost-4-ene-17β-carboxylic acid]
Block of the action of dihydrotestosterone on flank organ responses (steroid 5α-reductase [1]; castrated hamsters): did not, however, block
Anti-androgenic activity by inhibitory effects on steroid 5α-reductase activity (steroid 5α-reductase [1]): exhibit anti-androgenic activity

CC[C@]1(O)CC[C@H]2[C@@H]3CCC4=CC(=O)CC[C@]4(C)[C@H]3CC[C@@]21C [17α-ethylandrost-4-en-17β-ol-3-one]
Systemic androgenic activity [2]: have systemic androgenic activity

CCC[C@]1(OC=O)CC[C@H]2[C@@H]3CCC4=CC(=O)CC[C@]4(C)[C@H]3CC[C@@]21C [17β-Formyloxy-17α-(n-propyl)androst-4-en-3-one]
Activity relative to the parent alcohol, by cholesterol content [3, 12]: about 40%
Flank organ development (in words) [3, 12]: no effect
Flank organ size (in words) [3, 12]: slightly reduced flank organ size
Reduction of flank organ cholesterol content [3, 12]: 32%
Reduction of flank organ wet weight [3, 12]: about 13%

CCC[C@]1(O)CC[C@H]2[C@@H]3CCC4=CC(=O)CC[C@]4(C)[C@H]3CC[C@@]21C [Compd. I, 17α-(n-propyl)androst-4-en-17β -ol-3-one]
Flank Organ Cholest., Mean ± S.E. [3, 13]: 162 ± 5.8 µg
Flank Organ Diameter, Mean ± S.E. [3, 13]: 3.71±0.22 mm
Flank Organ Wet Wgt, Mean ± S.E. [3, 13]: 28.5 ± 1.0 mg
Flank Organ Cholest., Mean ± S.E. [3, 14]: 163 ± 9.4 µg
Flank Organ Diameter, Mean ± S.E. [3, 14]: 3.91±0.14 mm
Flank Organ Wet Wgt, Mean ± S.E. [3, 14]: 27.5 ± 1.3 mg
Inhibition of testosterone-stimulated increase in the cholesterol contact of the flank organs (in words) ([3]; castrated hamsters): effective as inhibitors
Reduction of testosterone-stimulated increase in flank organ diameter (in words) ([3]; castrated hamsters): effective
Suppression of flank organ development, degree of pigmentation (in words) ([3]; castrated hamsters): effective in suppressing flank organ development
Wet weight of the flank organs (in words) ([3]; castrated hamsters): reduced the wet weight of the flank organs below that recorded for the vehicle control
Flank Organ Develop. (Med. Score) ([3]; 1 μg TP + 100 μg test compound): 3.5
Flank Organ Develop. (Med. Score) ([3]; 1 μg TP + 200 μg test compound): 3.0
Flank Organ Develop. (Med. Score) ([3]; 1 μg TP + 200 μg test compound, listed as Compound I): 3
Endocr. Organ Wgts, Mean ± S.E.: Adrenal Gland [4, 15]: 12.1±0.32 Mg
Endocr. Organ Wgts, Mean ± S.E.: Seminal Vesicle [4, 15]: 39.5±2.9 Mg
Endocr. Organ Wgts, Mean ± S.E.: Thymus Gland [4, 15]: 58.3±6.7 Mg
Endocr. Organ Wgts, Mean ± S.E.: Adrenal Gland [4, 16]: 11.6±0.48 Mg
Endocr. Organ Wgts, Mean ± S.E.: Seminal Vesicle [4, 16]: 34.0±2.6 Mg
Endocr. Organ Wgts, Mean ± S.E.: Thymus Gland [4, 16]: 43.5±4.9 Mg
Weights of the endocrine organs (in words) [4]: not significantly altered
Flank organ development [5]: caused a regression in flank organ development
Seminal vesicle weights [5]: not reduced
Size and lipid content of the sebaceous glands [5]: significantly reduced
Inhibition of conversion of testosterone to dihydrotestosterone by steroid 5α-reductase (steroid 5α-reductase [6]; concentration one-hundredth molar): 100%
Inhibition of conversion of testosterone to dihydrotestosterone by steroid 5α-reductase (steroid 5α-reductase [6]; concentration one-thousandth molar): 53%
Androgenic, estrogenic or anabolic properties [7]: devoid of any significant androgenic, estrogenic or anabolic properties
Progestational activity, Clauberg assay ([8]; 32 mg/kg applied topically): minimal progestational activity
Progestational activity relative to that of progesterone ([8]; administered intramuscularly): about one-fortieth
Serum testosterone levels compared with untreated controls [9]: unchanged
LD50 [10, 17]: > 5000 mg/kg
LD50 [10, 18]: > 1000 mg/kg
LD50 [11, 17]: > 5000 mg/kg
LD50 [11, 18]: > 1000 mg/kg

CCCC[C@]1(O)CC[C@H]2[C@@H]3CCC4=CC(=O)CC[C@]4(C)[C@H]3CC[C@@]21C [Compd. II, 17α-(n-butyl)androst-4-en-17β -ol-3-one]
Flank Organ Cholest., Mean ± S.E. [3, 14]: 151 ± 8.9 µg
Flank Organ Diameter, Mean ± S.E. [3, 14]: 3.24±0.13 mm
Flank Organ Wet Wgt, Mean ± S.E. [3, 14]: 21.6 ± 1.2 mg
Inhibition of testosterone-stimulated increase in the cholesterol contact of the flank organs (in words) ([3]; castrated hamsters): effective as inhibitors
Reduction of testosterone-stimulated increase in flank organ diameter (in words) ([3]; castrated hamsters): effective
Suppression of flank organ development, degree of pigmentation (in words) ([3]; castrated hamsters): effective in suppressing flank organ development
Wet weight of the flank organs (in words) ([3]; castrated hamsters): reduced the wet weight of the flank organs below that recorded for the vehicle control
Flank Organ Develop. (Med. Score) ([3]; 1 μg TP + 200 μg test compound): 1.0
Flank Organ Develop. (Med. Score) ([3]; 1 μg TP + 200 μg test compound, listed as Compound II): 1
Endocr. Organ Wgts, Mean ± S.E.: Adrenal Gland [4, 16]: 12.4±0.53 Mg
Endocr. Organ Wgts, Mean ± S.E.: Seminal Vesicle [4, 16]: 34.0±4.1 Mg
Endocr. Organ Wgts, Mean ± S.E.: Thymus Gland [4, 16]: 60.7±7.6 Mg
Weights of the endocrine organs (in words) [4]: not significantly altered

C[C@]12CCC(=O)C=C1CC[C@@H]1[C@@H]2CC[C@@]2(C)[C@H]1CC[C@]2(C)O [Methyltestosterone]
Systemic androgenic activity [2]: have systemic androgenic activity

CCC(=O)O[C@H]1CC[C@H]2[C@@H]3CCC4=CC(=O)CC[C@]4(C)[C@H]3CC[C@]12C [TP, testosterone propionate, reference compound]
Flank Organ Cholest., Mean ± S.E. [3, 19]: 238 ± 26 µg
Flank Organ Diameter, Mean ± S.E. [3, 19]: 4.30±0.15 mm
Flank Organ Wet Wgt, Mean ± S.E. [3, 19]: 42.0 ± 1.2 mg
Flank Organ Develop. (Med. Score) ([3]; 1 μg TP alone): 4.0
Endocr. Organ Wgts, Mean ± S.E.: Adrenal Gland ([4]; Group II: 1 μg TP alone): 11.8±0.81 Mg
Endocr. Organ Wgts, Mean ± S.E.: Seminal Vesicle ([4]; Group II: 1 μg TP alone): 35.0±2.9 Mg
Endocr. Organ Wgts, Mean ± S.E.: Thymus Gland ([4]; Group II: 1 μg TP alone): 55.2±6.5 Mg

CC(=O)O[C@]1(C(C)=O)CC[C@H]2[C@@H]3C=C(Cl)C4=CC(=O)[C@@H]5C[C@@H]5[C@]4(C)[C@H]3CC[C@@]21C [cyproterone acetate, 6-chloro-1α , 2α-methylene-4,6-pregnadien-17α-o1-3,20-dione acetate]
Effectiveness against acne or sebum secretion (acne or sebum secretion): not to be effective

COC(=O)[C@H]1CC[C@H]2[C@@H]3CCC4=CC(=O)CC[C@]4(C)[C@H]3CC[C@]12C [methyl ester thereof]
Anti-androgenic activity by inhibitory effects on steroid 5α-reductase activity (steroid 5α-reductase [1]): exhibit anti-androgenic activity

CC(=O)[C@H]1CC[C@H]2[C@@H]3CCC4=CC(=O)CC[C@]4(C)[C@H]3CC[C@]12C [progesterone, reference compound]
Progestational activity, Clauberg assay ([8]; 2 mg/kg applied topically): maximal response
